Patent US9980943B2, “Methods of treating muscular dystrophy” (BOARD OF REGENTS OF THE NEVADA SYSTEM OF HIGHER EDUCATION, …, priority 2013, dated 2018)
Read-outs that look alike come from different tables or passages of the source.

What was measured:
Format in all cases: cell-based, mouse
[1] = test system: α7 integrin (LacZ reporter in α7βgal+/− myoblasts); experiment: Myoblast α7+/LacZ integrin FDG assay (Burkin assay in myoblasts, 96-well); conditions: Mus musculus, Myoblast, 48 h, α7+/LacZ myoblasts, 96-well
[2] = test system: α7 integrin (LacZ reporter in α7+/LacZ myotubes); experiment: Myotube α7 integrin FDG assay (Burkin assay in myotubes, 96-well); conditions: Mus musculus, Myotube, myotubes
[3] = test system: β-galactosidase in CMV-LacZ C2C12 myoblasts; experiment: CMV-LacZ secondary screen in C2C12 myoblasts (β-Gal stabilizing assay); conditions: CMV-LacZ C2C12 myoblasts
In short: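 First, C2C12 myoblasts were transfected with a linearized CMV-LACZ vector and clonal lines selected by FDG β-gal assay. Then cells were exposed to compounds at 0.5, 1, 5, 10, 20 and 40 μM in 96-well format, two replicates each, and β-gal measured.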

[4] = test system: β-galactosidase in CMV-LacZ C2C12 myotubes; experiment: CMV-LacZ secondary screen in C2C12 myotubes (β-Gal stabilizing assay); conditions: Mus musculus, C2C12 CMV-LacZ myotubes, fold relative to DMSO
In short: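 Stable CMV-LacZ C2C12 clone; six-point curve 0.5–40 μM; duplicates.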

[5] = read-out: Burkin Assay in Myoblasts, signal relative to DMSO
[6] = read-out: Burkin Assay in Myoblasts, value relative to DMSO
[7] = read-out: Burkin Assay in Myotubes (signal relative to DMSO)
[8] = read-out: Burkin Assay in Myotubes, α7 integrin LacZ reporter signal relative to DMSO

CCOC(=O)C1CCCN(C(=O)CNS(=O)(=O)c2ccc(Br)s2)C1 (stereo not drawn) [MLS000086970-01]
fold induction at 0.5 µM [1, 5]: 0.982
fold induction at 0.5 µM [1, 6]: 1.01
fold induction at 1 µM [1, 5]: 1.07
fold induction at 1 µM [1, 6]: 1.2
fold induction at 5 µM [1, 5]: 0.858
fold induction at 5 µM [1, 6]: 1.6
fold induction at 10 µM [1, 5]: 0.872
fold induction at 10 µM [1, 6]: 0.955
fold induction at 20 µM [1, 5]: 0.854
fold induction at 20 µM [1, 6]: 1.02
fold induction at 40 µM [1, 5]: 0.781
fold induction at 40 µM [1, 6]: 0.934
fold induction at 0.5 µM [2, 7]: 0.953
fold induction at 1 µM [2, 7]: 0.922
fold induction at 5 µM [2, 7]: 1.09
fold induction at 10 µM [2, 7]: 0.961
fold induction at 20 µM [2, 7]: 0.931
fold induction at 40 µM [2, 7]: 0.887
fold induction at 0.5 µM [2, 8]: 1
fold induction at 1 µM [2, 8]: 1.09
fold induction at 5 µM [2, 8]: 0.864
fold induction at 10 µM [2, 8]: 0.958
fold induction at 20 µM [2, 8]: 0.961
fold induction at 40 µM [2, 8]: 0.971
CMV-LACZ in Myoblasts (β-galactosidase activity relative to DMSO) ([3]; 0.5 uM): 0.9925
CMV-LACZ in Myoblasts (β-galactosidase activity relative to DMSO) ([3]; 1 uM): 1.0504
CMV-LACZ in Myoblasts (β-galactosidase activity relative to DMSO) ([3]; 5 uM): 0.8994
CMV-LACZ in Myoblasts (β-galactosidase activity relative to DMSO) ([3]; 10 uM): 0.9068
CMV-LACZ in Myoblasts (β-galactosidase activity relative to DMSO) ([3]; 20 uM): 1.0197
CMV-LACZ in Myoblasts (β-galactosidase activity relative to DMSO) ([3]; 40 uM): 0.8880
fold induction at 0.5 µM ([4]; C2C12, read-out: CMV-LACZ in Myotubes, signal relative to DMSO, 0.5 uM): 0.967
fold induction at 1 µM ([4]; C2C12, read-out: CMV-LACZ in Myotubes, signal relative to DMSO, 1 uM): 0.885
fold induction at 5 µM ([4]; C2C12, read-out: CMV-LACZ in Myotubes, signal relative to DMSO, 5 uM): 1.11
fold induction at 10 µM ([4]; C2C12, read-out: CMV-LACZ in Myotubes, signal relative to DMSO, 10 uM): 0.974
fold induction at 20 µM ([4]; C2C12, read-out: CMV-LACZ in Myotubes, signal relative to DMSO, 20 uM): 0.987
fold induction at 40 µM ([4]; C2C12, read-out: CMV-LACZ in Myotubes, signal relative to DMSO, 40 uM): 0.988
